The results in this text go back to ChEMBL document CHEMBL3507680, “University of Dundee, Gates Library screen for HepG2 cell viability”.

This series can be described thus: Human HepG2 cell viability assay in 384 well format. The format is toxicity, cell-based. Also noted: dose 125 nL, time 70.5 hour; concentration not given beside the values. Conditions: HepG2 cells, read-out: Inhibition.
`Cc1ccccc1CCNC(=O)C1CC(=O)N(CC(F)(F)F)C1` (stereo not given): the cytotoxicity at 70.5 h was found to be 26.6%. Regarding `CSc1cccc(CN(C)C(=O)Cn2ncc(N3CCCC3)cc2=O)c1`, the cytotoxicity at 70.5 h is -3.66%. The same measure for `Cc1cc(C)c(CNc2cnn(CC(O)CN(C)C)c2)c(C)c1` (stereo not given): -11.8%. Next, `CCCc1n[nH]c(C2CN(C(=O)c3ccnc(C4CC4)n3)CCO2)n1` (stereo not given): -1.45%. Next, `Cc1cc(=O)n(CCNS(=O)(=O)c2ccccc2)cn1`: -1.2%; `CS(=O)(=O)c1cccc(C(=O)NCC2(c3ccccc3)CC2)c1`: -11.2%. As to `O=C(CCNc1ncccn1)NCc1ccc(Br)s1`, the cytotoxicity at 70.5 h was -11.3%. In the case of `Cc1cccnc1CN(C)C(C(=O)O)c1ccc(-c2ccn[nH]2)cc1` (stereo not given), the cytotoxicity at 70.5 h is -3.62%. Turning to `O=C(Nc1nnc[nH]1)C(c1cccc(F)c1)N1CCOCC1` (stereo not given), the cytotoxicity at 70.5 h was -1.33%. Next, `Cc1ccc(-n2ncc3c2CCCC3N)cc1C` (stereo not given): -4%; `CNC(=O)NCC1CCC2(CCN(C(=O)c3ccccn3)CC2)CO1` (stereo not given): 1.5%; `NC(=O)c1ccc(NC(=O)c2ccncc2Cl)cn1`: -4.51%. Next, `Cc1nc2cc(C(=O)N(CCC#N)CCC#N)ccc2n1C`: -6.33%; `NCCc1nc(N[C@@H](CO)c2ccccc2)c2ccccc2n1`: 7.85%. Next, `CSCC[C@@H]1CN2CCC[C@H]2CN1Cc1cn(C)nc1C`: 19.2%; `Cc1cnc(NC2CCN(CC(=O)Nc3ccccc3)CC2)nc1C`: 2.9%. `CCCn1nnnc1CSCc1cn2c(C)cccc2n1`: the cytotoxicity at 70.5 h is -12.9%. The same measure for `CNC(=O)C1CN(Cc2cc(C)on2)CCN(C(C)=O)C1` (stereo not given): -9.11%. The same measure for `CCNC(=O)[C@@H]1CCCN1C1(C(=O)NC)CCC1`: -5.11%; for `Cc1cnn(CCC(=O)NS(=O)(=O)N2CCc3ccccc32)c1`: -8.38%. Regarding `COCC(=O)N1CCC(c2nc3ccc(N4CCOCC4)cn3n2)CC1`, the cytotoxicity at 70.5 h was -2.79%. Next, `Cc1cc(C)c(CNC(=O)NCCNc2cnccn2)c(=O)[nH]1`: -4.64%; `Cn1c(CN2CCCCC2)nnc1C1CCN(c2nccc(N)n2)CC1`: -7.78%.

With `CNC(=O)c1noc(CN2CC[C@](C)(O)[C@H](C)C2)n1`, the cytotoxicity at 70.5 h is -8.07%.

With `COCC(=O)Nc1ccc(-c2noc([C@@H]3CCCN3C(C)C)n2)cn1`, the cytotoxicity at 70.5 h is -2.85%. Next, `CCc1cnc(CNC(=O)NCCCO)s1`: -3.22%; `Cn1ncc2c(N[C@H]3CC[C@@H](N)CC3)nc(C(C)(C)C)nc21`: 6.09%. The same measure for `CCc1ncncc1C(=O)Nc1ccc2ccn(CCN(C)C)c2c1`: -9.77%; for `COCCN(Cc1ccccc1)Cc1csc(-c2ncccn2)n1`: -4.86%; for `CCO[C@H]1CC[C@H]2[C@H]1OCCN2CCOCc1ccccc1`: -11.1%. Take `Cc1nc(C2CCCNC2)nc2c1CCCN2Cc1ccccn1` (stereo not given): the cytotoxicity at 70.5 h is -3.47%.

For `CN(C)c1cc2c(nn1)CCN(C(=O)c1cc3ccccc3[nH]c1=O)C2`, the cytotoxicity at 70.5 h is -15.9%. Turning to `CC(C)NC(=O)[C@H]1C[C@@H]2[C@@H](C1)OCCN2Cc1ccncc1`, the cytotoxicity at 70.5 h is -7.54%.

For the compound `FC(F)(F)CCc1ccnc(N[C@H]2CC[C@H](n3cnnc3)CC2)n1`, the cytotoxicity at 70.5 h was -9.96%. The same measure for `O=C(c1ccc2c(c1)[nH]c(=O)n2C1CCCC1)N1CCSCC1`: -4.63%; for `CCc1noc(CN2CCN(CCO)CC2)n1`: -1.62%.

Regarding `Cn1cc(-c2ncnc3c2CCN(C(=O)c2cscn2)CC3)cn1`, the cytotoxicity at 70.5 h was found to be 22.4%. `COC(=O)N1C[C@H]2CC[C@@H]1CN(Cc1cscn1)C2`: the cytotoxicity at 70.5 h was 1.18%. The same measure for `COc1cccc(-c2nc(C)c(C(=O)N[C@H](CO)CCSC)s2)c1`: -5.73%.

For `Cc1ccccc1CS(=O)(=O)CC(=O)NCc1ccccc1F`, the cytotoxicity at 70.5 h was 4.2%. Next, `Cc1nn(CCN2CCSCC2)cc1CNCc1ccccn1`: -5.69%; `CC(O)CN(c1ccccc1)S(=O)(=O)c1cc(C(=O)O)cc2c1CCC2` (stereo not given): -7.68%. As for `CC(C)CN1CCOC[C@H](Oc2ccc(S(C)(=O)=O)cc2)C1`, the cytotoxicity at 70.5 h is 13.8%. With `COc1cccc2sc(N3CCN(C(=O)c4cc(C)on4)CC3)nc12`, the cytotoxicity at 70.5 h is -2.51%. For the compound `CN(C)c1cc(C(=O)N2CCN(c3nccs3)CC2)ccn1`, the cytotoxicity at 70.5 h is -13.8%. For `Cc1noc(C2CCCN(C(=O)c3ccc(N(C)C)nc3)C2)n1` (stereo not given), the cytotoxicity at 70.5 h is -8.13%. Next, `Cc1nc2c(s1)C(N(C)C(=O)NCCCC(C)(C)CO)CCC2` (stereo not given): -6.11%; `CCc1nnc2n1CCN(CC(=O)Nc1cc(C)on1)C2`: 0.374%; `CC(C)c1nnsc1CNC(=O)C1CCN(C(C)C)CC1`: 1.46%. Next, `COc1cccc(-n2cc(CN(C)C(=O)c3cc[nH]n3)cn2)c1`: -6.6%; `COCCN1CCc2ncnc(OC(C)C)c2CC1`: -9.41%. Next, `CCOCC(=O)NCCc1nc(C2CC2)cc(C(F)(F)F)n1`: -4.83%. On to `COc1c(CNCc2ccc(C(=O)N3CCCC3)cc2)c(C)nn1C`, for which the cytotoxicity at 70.5 h turned out to be 10.8%. As for `COc1ccc(CN2CC(O)CN(C(=O)CC(C)C)CC2=O)cc1` (stereo not given), the cytotoxicity at 70.5 h came out at 4.85%. Consider `COc1cc(Cl)ccc1C(=O)N1CCCC(n2nc(C)nc2C)C1` (stereo not given), for which the cytotoxicity at 70.5 h was -0.226%. As for `CC(Nc1ccc(CN2CCCC2=O)cc1)C(=O)N(C)CCC#N` (stereo not given), the cytotoxicity at 70.5 h amounted to 0.0537%. Next, `c1ccc(CN2C[C@@H]3COC[C@]3(COCc3ccncc3)C2)nc1`: -2.45%; `CCn1ncc(NC(=O)c2cc(C3CC3)nc3c2c(C)nn3C)c1C`: 35.5%; `CC(=O)NCC(=O)N1CCOC2(CCCN(c3ccc(C)nn3)C2)C1` (stereo not given): -11.9%. The same measure for `CCN1CCC(NC(=O)CN2CCCC2Cn2cncn2)CC1` (stereo not given): -2.95%; for `CC(Oc1ccc(S(C)(=O)=O)cc1)C(=O)NC(N)=O` (stereo not given): -7.21%. The same measure for `O=C(CNc1ccc(F)cc1OCC(F)(F)F)NCC(F)(F)F`: 13.1%; for `Cc1ccc(CCNC(=O)N2CCC(Cc3cnn(C)c3)C2)cn1` (stereo not given): -1.42%; for `CCn1c(CN(C)C)nnc1C1CCN(Cc2ccc(Cl)cc2F)CC1`: -0.622%. `COc1ccc(Cl)cc1-c1cc(NC(=O)C2COCCO2)[nH]n1` (stereo not given): the cytotoxicity at 70.5 h is -4.84%. The same measure for `O=C(O)[C@@H]1CCCN1c1nccc(Nc2ccccc2)n1`: 16%; for `Cc1nc(C)n(CC2CCCN(CCC(=O)Nc3cc(C)on3)C2)n1` (stereo not given): -9.8%. Next, `CN1CCCC(C(=O)N2CCC(Oc3ccc(C#N)cn3)CC2)C1` (stereo not given): -5.58%; `O=C(Cc1ccccn1)N1CCc2ncnc(NC3CCC3)c2CC1`: -9.73%; `CC1CN(CCOc2cccc(C#N)c2)CCN1Cc1nccn1C` (stereo not given): -3.4%. The same measure for `N#Cc1ccc(CN2CCCCC2Cn2cccn2)cc1` (stereo not given): 16%. For `COCCS(=O)(=O)NC(C)c1cccc(C)c1C` (stereo not given), the cytotoxicity at 70.5 h was 28.4%. Turning to `COc1ccc2cc(C(=O)N3CC[C@H](CO)[C@H](O)C3)n(C)c2c1`, the cytotoxicity at 70.5 h came out at 2.19%. `CC(C)c1nccn1CCC(=O)N1CCCC1c1cccn1C` (stereo not given): the cytotoxicity at 70.5 h was -3.96%. Regarding `COc1ccccc1CN1CCC2(CC1)CC(Oc1ccccn1)CO2` (stereo not given), the cytotoxicity at 70.5 h is 47.3%. The same measure for `Cc1cc2c(o1)CC(C)(C)CC2NC(=O)CNC(=O)C1CC1` (stereo not given): -2.04%; for `Nc1ncc(CN2CCC(O)(c3ccccc3F)CC2)cn1`: -2.71%.

Regarding `Clc1snnc1CN1CCCCC1Cn1cncn1` (stereo not given), the cytotoxicity at 70.5 h was found to be 11.8%. As to `CCOCC(O)CN1CCN(C(=O)CC(C)C)CC1` (stereo not given), the cytotoxicity at 70.5 h was -7.21%.

Take `COc1cc(C)c(C)cc1S(=O)(=O)N(C)CC(=O)Nc1ccon1`: the cytotoxicity at 70.5 h was -15.2%. Next, `O=c1n(CCNCc2ccc3ccccc3c2)nc2ccccn12`: -0.105%. With `CCOC(=O)c1sc(NC(=O)C(C)C)c(C#N)c1C`, the cytotoxicity at 70.5 h is -5.23%.

Turning to `Cc1nc(CN2CCC3(CCCN(Cc4ccoc4)C3)C2=O)cs1` (stereo not given), the cytotoxicity at 70.5 h came out at 11.4%. In the case of `CC1CCc2c(c3ccccc3[nH]c2=O)O1` (stereo not given), the cytotoxicity at 70.5 h is -6.86%. Next, `COC(=O)CCn1ccc(=O)c2cc(F)ccc21`: -8.87%; `CNC(=O)N1CCc2cc(C(=O)N(C)C)c(NCC3CC3)nc2CC1`: -12%; `CC(=O)N1CCCN(C(=O)NC(C)c2ccc(C)o2)CC1` (stereo not given): 1.15%. Turning to `CSCCC1c2nc[nH]c2CCN1Cc1ccccc1C(F)(F)F` (stereo not given), the cytotoxicity at 70.5 h stood at 0.321%. `CN1CCc2nc(N(C)C)nc(N3CCC(O)CC3)c2C1`: the cytotoxicity at 70.5 h is -9.46%. Next, `CCOc1ccc(CC(CNC(=O)c2ccoc2)C(N)=O)cc1` (stereo not given): 49.1%; `COc1c(C2CCCN2C(=O)c2cncnc2C)c(C)nn1C` (stereo not given): 39.1%; `CO[C@H]1CN(Cc2ccccc2F)C[C@@]12CCCO2`: -5.8%. Consider `CNc1ncc(C(=O)N2CCOC(C(=O)NC3CCCC3)C2)cn1` (stereo not given), for which the cytotoxicity at 70.5 h is -9.73%.

In the case of `CNC(=O)CN1CCC12CCN(C(=O)Cc1ccccc1)C2` (stereo not given), the cytotoxicity at 70.5 h is -17.2%.

Turning to `Cc1nc(C)c(C(=O)N2CCC(O)(Cn3ccc4ccncc43)CC2)s1`, the cytotoxicity at 70.5 h is 1.41%. Take `COCCn1cnc2ccc(NC(=O)c3ccccn3)cc2c1=O`: the cytotoxicity at 70.5 h was -9.53%. With `CS(=O)(=O)C1(CNCc2cccc(-n3cccn3)c2)CCOCC1`, the cytotoxicity at 70.5 h turned out to be 12.5%. As for `COCC(=O)N1CCC(c2nccnc2Oc2cccnc2C)CC1`, the cytotoxicity at 70.5 h is -34%.

As to `COCCNC(=O)[C@@H]1CN(Cc2sccc2C)C[C@H]2OCC[C@H]21`, the cytotoxicity at 70.5 h was -2.35%. The same measure for `CCC(CC)C(=O)N1CCOC2(COCCN(CC(=O)NC)C2)C1` (stereo not given): -11.7%.
